Laboratory results taken from US11826403B2, “Target for diabetes treatment and prevention” (UNIVERSITE DE STRASBOURG, priority 2014, dated 2023).

Columns and labels:
[1] = system: ALMS1-silenced adipocytes; assay: Intracellular triglyceride (TG) filling of ALMS1-silenced adipocytes; format: cell-based, human; conditions: 24-hours post NIG treatment
Procedure: Fluorescence measurement. The preadipocytes were cultured in a 96 well plate and 12 wells infected with the either ALMS1 shRNA lentiviral particles or CTRL shRNA lentiviral particles and differentiated the next day into mature adipocytes. 3 weeks later, the intracellular triglycerides were stained with AdipoRed staining following the manufacturer's procedure and the fluorescence was measured on a Tecan Infinite 200 quad4 monochromator (Tecan, Lyon, France) at a wavelength of 520 nm. The generated data were then analyzed using the Tecan Magellan Data Analysis software using as blank unstained adipocytes. The inventors next tested whether acidifying ALMS1-silenced adipocytes using Nigericin (NIG.), an electroneutral K^+/H^+ exchange ionophore known to cause osmotic swelling of the GSVs would bypass the Alms1-associated defect in GLUT4 fusion and glucose absorption.

human mature adipocytes [2] = assay: Electron microscopy of vesicle swelling and fusion with the plasma membrane; format: cell-based
Text: (§1) The inventors next tested whether acidifying ALMS1-silenced adipocytes using Nigericin (NIG.), an electroneutral K^+/H^+ exchange ionophore known to cause osmotic swelling of the GSVs would bypass the Alms1-associated defect in GLUT4 fusion and glucose absorption.

[3] = system: ALMS1-silenced adipocytes; assay: Immunodetection of GLUT4 / TBC1D4 at the plasma membrane in ALMS1-silenced adipocytes; format: cell-based, human; conditions: NIG-treated ALMS1-silenced adipocytes
Procedure: Western blots and immunofluorescence microscopy. Male Alms1^foz/foz and WT littermates were anaesthetized. The following insulin sensitive tissues: liver, heart, muscle and adipose tissue were harvested and directly placed in RIPA buffer (Tris 50 mM, NaCl 150 mM, 0.1% SDS, 1% Triton-X100) supplemented with Complete mini protease inhibitor cocktail and PhosSTOP phosphatase inhibitor cocktail (Roche, Switzerland). Samples were sonicated and centrifuged […] at 17 000 g, 4° C. […]. Protein concentration assayed with BCA assay (Thermo Fisher Scientific, USA). Cellular proteins from cells were obtained by trichloroacetic acid precipitation and immunoblot analyses were performed using 30-50 μg total protein. Specific antibody binding was visualized using the SuperSignal® West Femto Maximum Sensitivity Substrate (catalog #: Lf145954, Pierce) on a BioRad Versadoc™ Imaging System or ImageQuant LAS 4000 imager (GE Healthcare, UK). Nonspecific proteins stained with Ponceau S were used as loading controls to normalize the signal obtained after specific immunodetection of the protein of interest using the Bio-Rad Quantity One program. For immunofluorescence experiments, the cells were seeded on permanox 8-wells Lab-Tek II Chamber Slide (Catalog #: 177445; NUNC). Cells were treated as indicated. […]

human mature adipocytes [4] = assay: Acridine orange acidification of adipocytes (time lapse); format: cell-based
Text: While AKT-phosphorylation of TBC1D4 has been known to in some way lead to GLUT4 trafficking, the ultimate GSV-PM fusion step is an insulin regulated non-AKT dependent event that requires osmotic swelling of the GSVs under the action of the vATPase H^+ pump. However, knowledge of the actual signal and mechanism for activation of the H^+ pump by insulin was missing. The inventors tested if ALMS1 inactivation could prevent the acidification of the GSVs and therefore the chemo-osmotic-mediated release of GLUT4 to the PM using the acidotrophic dye, acridine orange, which emits a green fluorescence at low concentration and an orange-red fluorescence at high concentrations in the lysosomes in which acridine orange is protonated and sequestered. In absence of insulin, no orange-red fluorescence was detected in the adipocytes.
as §1

human mature adipocytes [5] = assay: 2-NBDG absorption in control and ALMS1-silenced mature adipocytes; format: cell-based; conditions: for 2-NBDG absorption: ALMS1-silenced adipocytes, 30 min stimulation
Procedure: (§2) Cell culture. Human white visceral preadipocytes (Catalog #: C-12732; PromoCell) and human mesenchymal stem cells (Catalog #: C-12974; PromoCell) derived from healthy bone marrow were purchased. The preadipocytes were seeded according to manufacturer's protocol and cultured in the Preadipocyte growth medium (Catalog #: C-27410; PromoCell) to confluence. One day before inducing terminal adipogenesis, the cells were infected with specific lentiviral particles consisted of a pool of 3 shRNAs target-specific constructs purchased from Santa Cruz Biotechnology and on the next day, adipogenic differentiation was induced by changing the medium to the Preadipocyte Differentiation Medium (Catalog #: C-27436; PromoCell) for 2 days. After the differentiation phase, the medium was finally changed to the Adipocyte Nutrition medium (Catalog #: C-27438; PromoCell). For the culture without insulin, Adipocyte Basal Medium (Catalog #: C-2431; PromoCell) without insulin was complemented with 5 g/L of deoxyglucose, 8 μg/mL d-Biotin, 400 ng/mL Dexamethasone. For the hMSCs, they were cultured in Mesenchymal Stem Cell Growth Medium (Catalog #: C-28010; PromoCell) to confluence. hMSCs were transfected with specific siRNAs as described above and on the next day adipogenic differentiation was induced by changing the medium to the MSC Adipogenic Differentiation Medium (Catalog #: C28011; Promocell).
Following ALMS1 silencing in 2-week-old mature adipocytes, glucose absorption capacity was assessed using labelled glucose analogue (2-NBDG). In the absence of insulin stimulation, no 2-NBDG uptake could be detected in ALMS1-silenced and control mature adipocytes (FIG. 2A). […] Further to reduced glucose absorption in ALMS1-silenced adipocytes, the inventors observed a reduction in intracellular triglycerides (TG) in these cells a week later (FIGS. 2C-D). […]

Alms1foz/foz mice = assay: Insulin tolerance test (ITT) in Alms1foz/foz mice; format: in vivo, mouse
Text: Six month old obese and young (<60 days old) nonobese Alms1^foz/foz mice and wildtype (WT) littermates were used to investigate what primary metabolic impairment leads Alms1^foz/foz mice to develop T2DM. Six month old Alms1^foz/foz mice were obese with an average body weight of 45.5 g±1.7 g compared to 26.4 g±1.3 g for WT littermates (FIG. 1A) and as previously shown had fasting hyperglycaemia and impaired glucose tolerance with elevated HOMA scores. […] (FIG. 1C). Obesity of Alms1^foz/foz mice was due to severe adipocyte hypertrophy (FIG. 1B) rather than the adipocyte hyperplasia more typically seen in obese BBS mice. To determine what the primary defect was that was causing the glucose intolerance in Alms1^foz/foz mice, young lean Alms1^foz/foz mice were studied to remove the confounding effect of obesity on insulin responsiveness. […]
Biochemical tests. […] Tail blood was obtained and the plasma glucose was determined for each mouse using a glucometer (Optium Xceed, Abbott, USA) and blood glucose test strips (Optium point of care, Abbott, USA) at 0, 15, 30 and 60 min after insulin injection. […] Plasma glucose was determined for each mouse using a glucometer with sampling via tail vein at 0, 15, 30, 60 and 120 min after glucose injection. […] The homeostasis model assessment of insulin resistance (HOMA-IR) index was calculated using individual mouse fasting insulin and fasting glucose levels. […]

mature adipocytes = assay: 2-NBDG glucose absorption in mature adipocytes infected with min-αPKC lentiviral particles; format: cell-based, human; conditions: n=8 per group
Procedure: as §2, with “Promocell). […]” for “Promocell).”

[6] = control human mature adipocytes

Compound: CO[C@@H]1C[C@@H](C[C@H]2CC[C@H](C)[C@H]([C@@H](C)C(=O)O)O2)O[C@]2(O[C@](C)([C@H]3CC[C@@](C)([C@@H]4O[C@@H]([C@H]5O[C@@](O)(CO)[C@H](C)C[C@@H]5C)C[C@@H]4C)O3)C[C@H]2C)[C@@H]1C [Nigericin]
- TG-filling of adipocytes [1]: restoration of TG-filling
- vesicular swelling and fusion with the PM (human mature adipocytes [2]; ALMS1-silenced adipocytes): induced vesicular swelling and fusion with the PM
- vesicular swelling and fusion with the PM (human mature adipocytes [2]; control adipocytes): induced vesicular swelling and fusion with the PM
- GLUT4 fusion with the PM [3]: restored GLUT4 fusion with the PM
- acidification (acridine orange orange-red fluorescence) (human mature adipocytes [4]; ALMS1-silenced adipocytes): rapid acidification
- acidification (acridine orange orange-red fluorescence) (human mature adipocytes [4]; [6]): rapid acidification
- 2-NBDG absorption (human mature adipocytes [5]): restore 2-NBDG absorption in the ALMS1-silenced adipocytes to levels seen in control cells

Compound: insulin
- insulin responsiveness (ITT) (Alms1foz/foz mice; 2 months old nonobese Alms1foz/foz males): significantly reduced insulin responsiveness
- glycaemia response to insulin administration (ITT) (Alms1foz/foz mice; six month old obese Alms1foz/foz mice, doses as high as 20 U/kg): unresponsive
- vesicular swelling and fusion with the PM (human mature adipocytes [2]; ALMS1-silenced adipocytes): not in ALMS1-silenced adipocytes
- vesicular swelling and fusion with the PM (human mature adipocytes [2]; control adipocytes): swelling of the vesicles
- acidification (acridine orange orange-red fluorescence) (human mature adipocytes [4]; ALMS1-silenced adipocytes): loss of insulin-mediated acidification
- acidification (acridine orange orange-red fluorescence) (human mature adipocytes [4]; [6]): rapid appearance of red color
- 2-NBDG absorption (human mature adipocytes [5]): little effect
- 2-NBDG uptake (human mature adipocytes [5]; control human mature adipocytes, insulin stimulation): increased 2-NBDG uptake

Compound: min-αPKC-FLAG: minimum ALMS1-interacting domain of αPKC (SEQ ID NOs: 14 and 15) with Flag-TAG, expressed from a lentiviral vector
- 2-NBDG absorption, increase compare to control (mature adipocytes; absence of INS, control lentiviral particles as comparator): 3.5 times
- 2-NBDG absorption versus control (mature adipocytes; presence of INS): no significant difference
